Laboratory results from the OPERA property sets (Mansouri et al. 2018).
In brackets after ≈: the same amount, converted by molar mass.

SMILES	logP	solubility [mM]
CCCn1ccc(=O)c(O)c1	-0.17	
O=c1ccn(C2OC(CO)CC2F)c(=O)[nH]1 (stereo unspecified)	-0.87	
Cc1ccc(S(=O)(=O)O)cc1		3600 (≈ 620000 µg/mL)
c1ccc2c(c1)sc1ccccc12		0.00798 (≈ 1.47 µg/mL)
N#CC(C#N)=Cc1ccco1	1.4	
CCNc1nc(N)nc(Cl)n1	1.15	3.86 (≈ 670 µg/mL)
CC(=O)Nc1ccc2nc(S(N)(=O)=O)sc2c1	0.86	
CCCCOC(=O)c1ccccc1C(=O)OCCCC	4.5	
OCCC(F)(F)C(F)(F)C(F)(F)C(F)(F)C(F)(F)C(F)(F)C(F)(F)C(F)(F)F	5.58	
S=C1NCCN1	-0.66	
Clc1cccc2c(Cl)cccc12	4.67	0.00192 (≈ 0.379 µg/mL)
CC(=O)OCN1C(=O)C(C)=C(C)C1=O	0.65	
C=CC(=O)NCCN1CCOCC1	-0.55	
O=[N+]([O-])c1ccc2c(c1)Cc1ccccc1-2	3.37	
Cc1cccc(C)c1C		0.626 (≈ 75.2 µg/mL)
CCCCn1cccc(O)c1=O	1.18	
Cc1cccc(C)c1NC(=O)c1cc(S(N)(=O)=O)c(Cl)cc1O	2.19	
CCn1ccc(=O)c(O)c1C	-0.31	
ClC=C1C2CC(C(Cl)C2Cl)C1(CCl)C(Cl)Cl (stereo unspecified)	5.45	
Clc1ccc(O[Si]23OCCN(CCO2)CCO3)cc1	0.6	
C=CCOCCO	-0.1	
CCO[C@H]1O[C@@H]2OC3(C)CC[C@H]4[C@H](C)CC[C@@H]([C@H]1C)[C@@]24OO3	3.89	
CCCCC(OC(Cc1ccccc1)C(=O)N1CCC(OCOC)CC1)C(=O)NC(CC1CCCCC1)C(O)CC(C(=O)NCCCNC(C)=O)C(C)C (stereo unspecified)	4.3	
CC(=O)Oc1cc(C(C)C)c(OCCN(C)C)cc1C	3.17	
Cc1cccc2c1Cc1ccccc1-2	4.97	
CC(=O)Nc1ncc2ncn(COCCO)c2n1	-1.33	

SMILES	logP	solubility [mM]
Brc1cc2oc3cc(Br)c(Br)cc3c2cc1Br	6.1	0.000145 (≈ 0.07 µg/mL)
CCOC(=O)C1CNC(=O)CC1C(=O)OCC (stereo unspecified)	-0.03	
Cc1ccc(C=[N+]([O-])C(C)(C)C)cc1	1.74	
O=CNc1nc(-c2ccc([N+](=O)[O-])o2)cs1	-1.14	
CN(C)c1cccc([N+](=O)[O-])c1	2.16	
Cc1nc(N2CCOCC2)c(C#N)cc1-c1ccccc1	3.65	
C#CCN(C)C(C)Cc1ccc(F)cc1 (stereo unspecified)	3	
Oc1ccc(Cl)cc1Cc1ccccc1	3.6	0.681 (≈ 149 µg/mL)
CCOCCOCCOCC	0.39	
COc1ccc2[nH]c3c4ccc(Cl)cc4ncc3c2c1	4.49	
O=C(c1ccccc1)n1ncc2c(=O)[nH]cnc21	1.2	
O=[N+]([O-])c1c(Cl)ncnc1Cl	2.29	
CC(CO)CO	0.24	
OCC1CO1 (stereo unspecified)	-0.95	
O=P(O)(O)CN(CP(=O)(O)O)CP(=O)(O)O	-3.53	
Cc1c(Cl)ccc(Cc2c(Cl)cccc2Cl)c1Cl	7.2	
CCCCCCCCCCCCN1CC(C(=O)O)CC1=O (stereo unspecified)	2.6	
CC1CCCC(C)C1O (stereo unspecified)	2.1	
COC(=O)c1c[nH]c2ccccc12	2.57	
O=C([O-])c1ccccc1O.[Na+]		781
C=CCN1CCC(CNC(=O)c2cc3nn[nH]c3cc2OC)C1 (stereo unspecified)	0.95	
CCCNC(=O)CCC(NS(=O)(=O)c1ccc(C)cc1)C(=O)O (stereo unspecified)	0.02	
CCCCCCCCC	5.65	
O=C(O)/C=C/C(=O)c1cccnc1	0.26	
ClC1=C(Cl)C2(Cl)C3C(Cl)C=CC3C1(Cl)C2(Cl)Cl (stereo unspecified)	6.1	
COc1c(Cl)ccc(Cl)c1Cl	3.64	

SMILES	logP	solubility [mM]
CCCCN(C)N=O	1.08	
CC(C)n1ccc(=O)c(O)c1	-0.02	
O=C1C2=C(CCCC2)C(=O)N1c1ccc(Cl)cc1	3.32	
Clc1ccc2ccccc2c1	3.9	
CC(=NNC(N)=Nc1ccccc1)c1ccccc1	2.18	
CC(=O)c1cccc(NCc2cnc3nc(N)nc(N)c3c2C)c1	1.46	
NC(=O)CC[C@H](N)C(=O)O	-3.64	
COc1ccc(C(=O)CCC(=O)O)cc1	1.38	
O=C(O)Cc1ccccc1I	2.33	
O=C(O)COc1cccc2ccccc12	2.6	
CN(C)C(=S)N(C)C	0.49	
CC(=O)OCN1C(=O)C=C(C)C1=O	0.45	
c1ccc2[nH]c(-c3cscn3)nc2c1	2.47	
COC(=O)c1sccc1S(=O)(=O)NC(=O)Nc1nc(C)nc(OC)n1	1.56	
c1ccc2nc3ccc4ccccc4c3cc2c1	4.48	
COc1ccc(S(=O)(=O)c2coc(S(N)(=O)=O)c2)cc1	1.17	
CCCN1CCOC2c3cc(O)ccc3CCC21 (stereo unspecified)	2.44	
O=[N+]([O-])c1ccc2c(c1)Cc1cc([N+](=O)[O-])ccc1-2	3.35	
Cc1cc(OCCN(C)C)c(C(C)C)cc1OC1CCCCC1=O (stereo unspecified)	3.63	
CN(C(=O)C(Cl)Cl)c1ccc(OC(=O)c2ccco2)cc1	2.24	
Cl.Cl.O=C1c2c(O)ccc(O)c2C(=O)c2c(NCCNCCO)ccc(NCCNCCO)c21		14.5
CCCCCCCCCC	5.01	
CN(C)CCCN1c2ccccc2S(=O)c2ccc(Cl)cc21 (stereo unspecified)	2.32	
CCCCCNC(=O)CCC(NS(=O)(=O)c1ccccc1)C(=O)O (stereo unspecified)	0.03	
Cc1nnc(-c2ccccc2)c(=O)n1N	0.83	
